Experimental data from US8192962B2, “Processes for detecting toxic substances” (Daikin Industries, Ltd., priority 2001, dated 2012).

Tested on: Genes belonging to other category
Test: DNA chip mRNA expression in yeast, genes belonging to other category (Table 9)
Format: cell-based, Saccharomyces cerevisiae S288C
Experimental: Yeast (Saccharomyces cerevisiae S288C (α SUC2mal mel gap2 CUP1)) were incubated at 25° C. on YPD medium (yeast extract 1%, polypepton 2%, glucose 2%). One of toxic chemical substances was added to the cells at logarithmic growth phase, and the cells were further incubated for two hours. Cells were cultured without any chemical substance in the same condition, and were used as control. Concentrations of the chemical substances were defined to inhibit the growth of the yeast but not lead to death.
After completion of the incubation, the culture was centrifuged to collect the cells. To the cells, sodium acetate buffer (50 mM sodium acetate, 10 mM EDTA, 1% SDS) was added, and the mixture was shaken at 65° C. for five minutes, followed by returning to room temperature, and obtaining the supernatant, of which the procedures were repeated two times. To the supernatant, ½ amount of a solution of phenol/chloroform was added, and the mixture was centrifuged to give a supernatant, which was added with an equal amount of chloroform, and the mixture was centrifuged to give a supernatant. To the supernatant, an equal amount of isopropanol containing 0.3 M sodium acetate was added, and the mixture was allowed to stand at room temperature for 30 minutes, after which the mixture was centrifuged to give a sediment of the whole RNAs. Seventy % ethanol was added to the sediment, and the mixture was again centrifuged to give a sediment, which was then dried and dissolved in water. mRNA was isolated from the whole RNAs as followings. In view of the fact that a poly A chain is attached to the 3′ terminus of mRNA, a polynucleotide having a poly T structure which was immobilized on the surface of latex beads was used to trap the mRNA, and then the mRNA was washed and eluted with spine column (Oligotex-dT30<Super>mRNA Purification Kit, Takara). Reverse transcription of the mRNA was conducted with a reverse transcriptase (Super Script II Reverse Transcriptase; catalogue No. 18064-014, GibcoBRL) using fluorescence-labeled nucleotides to give cDNAs that were introduced with Cy3-dUTP or Cy5-dUTP during the reverse transcription.
The labeled cDNAs were dissolved in TE buffer (10mM Tris-HCl/1 mM EDTA, pH8.0), and the solution was dropped on the DNA chip containing the whole genes of yeast (DNA Chip Research Inc. Japan) so that the cDNAs were hybridized on the DNA chip at 65° C. for over 12 hours. The fluoresces intensity of the DNA chip was read with a scanner, and the ratio relative to the fluorescence intensity resulting from the absence of chemical substance was estimated as the following, which is shown in Tables 1 to 9: […]

Measured: The level of expressed mRNA in the presence of chemical substance/The level of expressed mRNA in the absence of chemical substance

C[S+](C)[O-] [(15), dimethylsulfoxide]
2.3: yeast gene YGL158W | yeast gene YKL096W | yeast gene YLR178C
1.5: yeast gene YDR315C | yeast gene YJL030W | yeast gene YOR132W
3.0: yeast gene YHR071W
1.4: yeast gene YBR109C | yeast gene YDL007W | yeast gene YDR104C | yeast gene YKL190W | yeast gene YKR014C | yeast gene YNL015W | yeast gene YOR117W
0.5: yeast gene YJR099W
1.3: yeast gene YBL041W | yeast gene YDL238C | yeast gene YGR257C | yeast gene YKL008C | yeast gene YLR362W | yeast gene YMR004W | yeast gene YOR124C | yeast gene YOR259C | yeast gene YOR261C | yeast gene YPL109C | yeast gene YPR108W
5.7: yeast gene YDR055W
6.5: yeast gene YGR213C
0.8: yeast gene YCR004C | yeast gene YDR115W | yeast gene YFL028C | yeast gene YJR122W | yeast gene YLR090W | yeast gene YLR118C | yeast gene YLR251W | yeast gene YLR327C | yeast gene YNL007C | yeast gene YNR010W | yeast gene YOR165W | yeast gene YPL149W | yeast gene YPR073C
4.0: yeast gene YPL154C
2.9: yeast gene YDR259C
1.8: yeast gene YAR010C | yeast gene YBL043W | yeast gene YJR029W | yeast gene YOR288C
0.9: yeast gene YBL005W-A | yeast gene YDR358W | yeast gene YLR093C | yeast gene YMR139W | yeast gene YNL214W | yeast gene YPL018W
2.0: yeast gene YJR086W | yeast gene YMR226C | yeast gene YOR285W
1.9: yeast gene YHR139C | yeast gene YOR157C
2.8: yeast gene YCR088W | yeast gene YLR356W
2.6: yeast gene YDR388W | yeast gene YDR432W | yeast gene YGR136W | yeast gene YJL073W | yeast gene YLR250W | yeast gene YPL089C
1.0: yeast gene YEL066W | yeast gene YJL116C | yeast gene YKL041W | yeast gene YKL139W | yeast gene YNL333W | yeast gene YNR069C | yeast gene YOL164W | yeast gene YOR185C | yeast gene YPR103W
1.7: yeast gene YDL126C | yeast gene YMR051C | yeast gene YMR219W | yeast gene YMR275C
5.1: yeast gene YBR214W
0.7: yeast gene YDL008W | yeast gene YER107C | yeast gene YNL006W
3.3: yeast gene YIL140W | yeast gene YMR276W
3.1: yeast gene YDR085C | yeast gene YKL039W
3.8: yeast gene YOR198C
1.6: yeast gene YBR201W
3.9: yeast gene YLR391W
3.6: yeast gene YCL027W
0.2: yeast gene YGL229C
3.2: yeast gene YJR004C | yeast gene YOR355W
2.2: yeast gene YDR510W | yeast gene YER159C
3.4: yeast gene YOR181W
2.7: yeast gene YLR120C | yeast gene YOL013C
3.5: yeast gene YDR481C
